# PubChem BioAssay (NCI)
#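 How tested: cells in 96-well plates exposed to compound for 48 hours at five concentrations. GI50 is the concentration that inhibits growth by half. TGI is the concentration that stops growth completely.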
# Columns and labels:
# Experiment in all cases: DTP human tumour cell line panel, 48 h
# OVCAR-4 ovarian = system: OVCAR-4 ovarian
# MOLT-4 leukemia = system: MOLT-4 leukemia
# MCF7 breast = system: MCF7 breast
# MDA-MB-435 = system: MDA-MB-435
# NCI-H226 lung = system: NCI-H226 lung
# OVCAR-5 ovarian = system: OVCAR-5 ovarian
# OVCAR-3 ovarian = system: OVCAR-3 ovarian
# A498 renal = system: A498 renal
# M14 melanoma = system: M14 melanoma
# HCT-116 colon = system: HCT-116 colon
# A549 NSCLC = system: A549 NSCLC
# TK-10 renal = system: TK-10 renal
# EKVX NSCLC = system: EKVX NSCLC
# 786-0 renal = system: 786-0 renal
# RPMI-8226 leukemia = system: RPMI-8226 leukemia
# HCC-2998 colon = system: HCC-2998 colon
# DU-145 prostate = system: DU-145 prostate
# SK-OV-3 ovarian = system: SK-OV-3 ovarian
# SNB-19 CNS = system: SNB-19 CNS
# K-562 leukemia = system: K-562 leukemia
# BT-549 breast = system: BT-549 breast
# OVCAR-8 ovarian = system: OVCAR-8 ovarian
# UACC-62 melanoma = system: UACC-62 melanoma
# HL-60(TB) leukemia = system: HL-60(TB) leukemia
# MDA-MB-468 breast = system: MDA-MB-468 breast
# IGROV1 ovarian = system: IGROV1 ovarian
# ACHN renal = system: ACHN renal
# KM12 colon = system: KM12 colon
structure (smiles),measurement,setting,value
COc1ccc2ccccc2c1/C=C1\SC(=Nc2ccc(O)cc2)NC1=O,TGI,OVCAR-4 ovarian,21.1 µM
same,GI50,MOLT-4 leukemia,1.51 µM
same,TGI,MOLT-4 leukemia,11.3 µM
same,GI50,MCF7 breast,0.428 µM
same,TGI,MCF7 breast,12.5 µM
same,GI50,MDA-MB-435,0.235 µM
same,TGI,MDA-MB-435,0.591 µM
same,GI50,NCI-H226 lung,5.56 µM
same,TGI,NCI-H226 lung,34.7 µM
same,GI50,OVCAR-5 ovarian,3.56 µM
same,TGI,OVCAR-5 ovarian,16.2 µM
same,GI50,OVCAR-3 ovarian,0.425 µM
same,TGI,OVCAR-3 ovarian,11.7 µM
same,GI50,A498 renal,3.7 µM
same,TGI,A498 renal,16.4 µM
same,GI50,M14 melanoma,0.492 µM
same,TGI,M14 melanoma,10.8 µM
same,GI50,HCT-116 colon,0.432 µM
same,TGI,HCT-116 colon,11.6 µM
same,GI50,A549 NSCLC,2.01 µM
same,TGI,A549 NSCLC,16.9 µM
same,GI50,TK-10 renal,4.14 µM
same,TGI,TK-10 renal,21.6 µM
same,GI50,EKVX NSCLC,1.11 µM
same,TGI,EKVX NSCLC,17.3 µM
same,GI50,786-0 renal,3.19 µM
same,TGI,786-0 renal,21 µM
same,GI50,RPMI-8226 leukemia,2.59 µM
same,TGI,RPMI-8226 leukemia,9.45 µM
same,GI50,HCC-2998 colon,1.73 µM
same,TGI,HCC-2998 colon,12.6 µM
same,GI50,DU-145 prostate,2.17 µM
same,TGI,DU-145 prostate,19.6 µM
same,GI50,SK-OV-3 ovarian,1.66 µM
same,TGI,SK-OV-3 ovarian,18 µM
same,GI50,SNB-19 CNS,1.8 µM
same,TGI,SNB-19 CNS,14 µM
same,GI50,K-562 leukemia,0.413 µM
same,TGI,K-562 leukemia,11.9 µM
same,GI50,BT-549 breast,1.04 µM
same,TGI,BT-549 breast,4.54 µM
same,GI50,OVCAR-8 ovarian,1.58 µM
same,TGI,OVCAR-8 ovarian,6.51 µM
same,GI50,UACC-62 melanoma,0.346 µM
same,TGI,UACC-62 melanoma,12.5 µM
same,GI50,HL-60(TB) leukemia,0.431 µM
same,TGI,HL-60(TB) leukemia,2.65 µM
same,GI50,MDA-MB-468 breast,0.37 µM
same,TGI,MDA-MB-468 breast,1.82 µM
same,GI50,IGROV1 ovarian,1.85 µM
same,TGI,IGROV1 ovarian,14.4 µM
same,GI50,ACHN renal,1.81 µM
same,TGI,ACHN renal,16.3 µM
same,GI50,KM12 colon,1.19 µM
same,TGI,KM12 colon,14.8 µM
